From ChEMBL document CHEMBL1909046, “DrugMatrix in vitro pharmacology data”

Key:
[1] = DRUGMATRIX: Serotonin (5-Hydroxytryptamine) 5-HT3 radioligand binding (ligand: [3H] GR-65630); type: cell membranes, Membrane; conditions: hek293; Not Active = under 50% inhibition at 10 µM
[2] = DRUGMATRIX: Calcium Channel Type L, Phenylalkylamine radioligand binding (ligand: [3H] (-)-Desmethoxyverapamil (D-888)); type: cell membranes, Rattus norvegicus, Wistar, Brain, Membrane; conditions: Not Active = under 50% inhibition at 10 µM
[3] = target: T1, C-C chemokine receptor type 4 (Homo sapiens, UniProt P51679); type: cell membranes, Membrane; conditions: chem-1; further: in other assays of this panel Not Active means under 50% inhibition at 10 µM
T1 sequence (P51679 whole entry): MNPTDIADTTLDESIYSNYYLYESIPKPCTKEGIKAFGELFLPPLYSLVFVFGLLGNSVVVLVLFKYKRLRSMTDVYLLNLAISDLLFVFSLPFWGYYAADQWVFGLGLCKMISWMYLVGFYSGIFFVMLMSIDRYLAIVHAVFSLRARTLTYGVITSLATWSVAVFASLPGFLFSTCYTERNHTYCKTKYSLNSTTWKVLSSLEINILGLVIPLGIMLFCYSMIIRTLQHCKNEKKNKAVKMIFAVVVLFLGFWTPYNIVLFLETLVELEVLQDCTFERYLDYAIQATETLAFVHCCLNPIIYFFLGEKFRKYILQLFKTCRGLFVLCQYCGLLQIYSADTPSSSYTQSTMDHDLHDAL

[4] = DRUGMATRIX: Leukotriene, BLT (LTB4) radioligand binding (ligand: [3H]LTB4); type: cell membranes, Membrane; conditions: u-937; Not Active = under 50% inhibition at 10 µM
[5] = target: T2, Polyunsaturated fatty acid lipoxygenase ALOX15 (Oryctolagus cuniculus, UniProt P12530); assay: biochemical; type: tissue-based, Reticulocytes; conditions: reticulocytes;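 further: inhibition of 15-lipoxygenase enzyme activity measured with linoleic acid as the substrate; in other assays of this panel Not Active means under 50% inhibition at 10 µM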
T2 sequence (P12530 whole entry): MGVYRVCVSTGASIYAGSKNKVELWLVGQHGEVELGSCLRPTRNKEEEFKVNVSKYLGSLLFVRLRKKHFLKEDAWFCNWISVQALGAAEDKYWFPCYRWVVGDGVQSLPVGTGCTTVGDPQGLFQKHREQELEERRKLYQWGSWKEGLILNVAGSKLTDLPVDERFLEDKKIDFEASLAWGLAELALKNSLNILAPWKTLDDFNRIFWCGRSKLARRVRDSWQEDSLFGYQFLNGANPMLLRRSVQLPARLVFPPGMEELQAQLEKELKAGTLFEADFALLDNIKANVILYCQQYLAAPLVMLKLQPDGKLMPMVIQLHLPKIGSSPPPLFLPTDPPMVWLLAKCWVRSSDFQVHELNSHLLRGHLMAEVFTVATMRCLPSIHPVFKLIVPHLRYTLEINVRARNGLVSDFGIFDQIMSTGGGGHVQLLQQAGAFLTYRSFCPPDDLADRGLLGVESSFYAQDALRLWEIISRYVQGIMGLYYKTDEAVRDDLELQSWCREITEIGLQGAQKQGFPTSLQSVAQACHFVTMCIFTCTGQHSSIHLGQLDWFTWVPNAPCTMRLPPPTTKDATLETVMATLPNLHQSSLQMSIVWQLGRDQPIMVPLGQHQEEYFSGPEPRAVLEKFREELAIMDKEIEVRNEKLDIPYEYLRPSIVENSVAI

[6] = target: T3, Cytochrome P450 1A2 (Homo sapiens, UniProt P05177); conditions: bti-tn-5b1-4; further: in other assays of this panel Not Active means under 50% inhibition at 10 µM
T3 sequence (P05177 whole entry): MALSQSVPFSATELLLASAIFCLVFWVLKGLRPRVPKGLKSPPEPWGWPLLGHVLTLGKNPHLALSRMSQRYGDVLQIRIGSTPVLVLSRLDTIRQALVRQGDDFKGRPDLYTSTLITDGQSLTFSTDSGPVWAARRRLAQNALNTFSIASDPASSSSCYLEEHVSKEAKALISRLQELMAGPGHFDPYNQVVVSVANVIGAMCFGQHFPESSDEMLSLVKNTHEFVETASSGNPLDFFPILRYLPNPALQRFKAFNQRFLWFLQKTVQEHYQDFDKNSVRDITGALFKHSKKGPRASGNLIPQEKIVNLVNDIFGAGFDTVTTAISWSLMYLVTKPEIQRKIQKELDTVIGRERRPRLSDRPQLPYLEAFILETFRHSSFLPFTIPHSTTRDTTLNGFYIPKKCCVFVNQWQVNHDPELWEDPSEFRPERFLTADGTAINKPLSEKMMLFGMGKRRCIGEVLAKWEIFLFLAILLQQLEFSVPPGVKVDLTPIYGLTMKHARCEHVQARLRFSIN

[7] = target: Voltage-gated inwardly rectifying potassium channel KCNH2 (Homo sapiens, UniProt Q12809); conditions: hek293; further: in other assays of this panel Not Active means under 50% inhibition at 10 µM
Sequence of Voltage-gated inwardly rectifying potassium channel KCNH2 (Q12809 whole entry): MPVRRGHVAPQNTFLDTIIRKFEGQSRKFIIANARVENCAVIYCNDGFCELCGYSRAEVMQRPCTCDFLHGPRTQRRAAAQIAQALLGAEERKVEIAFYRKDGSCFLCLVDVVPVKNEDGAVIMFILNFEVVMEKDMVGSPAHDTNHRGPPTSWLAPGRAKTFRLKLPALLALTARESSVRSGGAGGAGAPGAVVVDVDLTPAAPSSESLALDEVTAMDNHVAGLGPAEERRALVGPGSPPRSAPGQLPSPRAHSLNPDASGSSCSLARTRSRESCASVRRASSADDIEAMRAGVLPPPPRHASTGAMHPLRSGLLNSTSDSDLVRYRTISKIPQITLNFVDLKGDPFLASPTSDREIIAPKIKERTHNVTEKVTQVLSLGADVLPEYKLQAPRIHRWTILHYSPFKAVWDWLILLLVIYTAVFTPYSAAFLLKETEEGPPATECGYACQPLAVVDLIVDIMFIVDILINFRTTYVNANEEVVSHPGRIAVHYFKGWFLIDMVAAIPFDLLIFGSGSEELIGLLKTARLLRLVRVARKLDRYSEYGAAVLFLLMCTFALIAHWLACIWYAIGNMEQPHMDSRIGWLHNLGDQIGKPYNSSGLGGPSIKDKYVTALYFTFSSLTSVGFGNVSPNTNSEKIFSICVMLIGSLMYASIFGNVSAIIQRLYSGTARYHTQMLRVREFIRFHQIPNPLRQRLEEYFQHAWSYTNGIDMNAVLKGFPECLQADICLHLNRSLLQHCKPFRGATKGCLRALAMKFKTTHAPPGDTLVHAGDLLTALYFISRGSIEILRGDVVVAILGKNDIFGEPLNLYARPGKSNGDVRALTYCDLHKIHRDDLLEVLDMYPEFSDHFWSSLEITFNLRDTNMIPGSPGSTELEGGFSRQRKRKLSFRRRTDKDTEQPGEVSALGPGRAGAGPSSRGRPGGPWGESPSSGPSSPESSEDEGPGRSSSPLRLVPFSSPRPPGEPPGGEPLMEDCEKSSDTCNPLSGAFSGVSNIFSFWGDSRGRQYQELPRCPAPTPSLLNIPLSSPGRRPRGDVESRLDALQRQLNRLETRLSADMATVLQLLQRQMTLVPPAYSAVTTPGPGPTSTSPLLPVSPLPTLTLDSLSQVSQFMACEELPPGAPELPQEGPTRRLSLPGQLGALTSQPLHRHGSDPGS

CNC1(c2ccccc2Cl)CCCCC1=O (stereo not given) [KETAMINE]
Not Active: IC50 [1] | Ki [1] | IC50 [2] | Ki [2] | IC50 [3] | IC50 [4] | Ki [4] | IC50 [5] | IC50 [6] | Ki [6] | IC50 [7] | Ki [7]

N#Cc1ccc(C(c2ccc(C#N)cc2)n2cncn2)cc1 [LETROZOLE]
Not Active: IC50 [1] | Ki [1] | IC50 [2] | Ki [2] | IC50 [3] | IC50 [4] | Ki [4] | IC50 [5] | IC50 [7] | Ki [7]

CCN1CCC[C@H]1CNC(=O)c1cc(S(N)(=O)=O)ccc1OC [LEVOSULPIRIDE]
Not Active: IC50 [1] | Ki [1] | IC50 [2] | Ki [2] | IC50 [3] | IC50 [4] | Ki [4] | IC50 [5] | IC50 [6] | Ki [6] | IC50 [7] | Ki [7]

CCN(CC)CC(=O)Nc1c(C)cccc1C [LIDOCAINE]
Not Active: IC50 [1] | Ki [1] | IC50 [2] | Ki [2] | IC50 [3] | IC50 [4] | Ki [4] | IC50 [5]

O=C1Nc2ccc(Cl)cc2C(c2ccccc2Cl)=NC1O (stereo not given) [LORAZEPAM]
Not Active: IC50 [1] | Ki [1] | IC50 [2] | Ki [2] | IC50 [3] | IC50 [4] | Ki [4] | IC50 [5] | IC50 [6] | Ki [6] | IC50 [7] | Ki [7]

CO[C@@H]1[C@@H](OC)[C@H](C)[C@@](O)(CC(=O)O)O[C@H]1[C@H](C)[C@H]1O[C@@]2(CC[C@@](C)([C@H]3CC[C@@](C)([C@@H]4O[C@@H]([C@H]5O[C@](C)(O)[C@H](C)C[C@@H]5C)C[C@@H]4O[C@@H]4C[C@H](OC)[C@@H](OC)[C@H](C)O4)O3)O2)C[C@H](O)[C@H]1C [MADURAMICIN ACID]
Not Active: IC50 [1] | Ki [1] | IC50 [2] | Ki [2] | IC50 [3] | IC50 [4] | Ki [4] | IC50 [5] | IC50 [6] | Ki [6] | IC50 [7] | Ki [7]

COc1c2occc2cc2ccc(=O)oc12 [METHOXSALEN]
Not Active: IC50 [1] | Ki [1] | IC50 [2] | Ki [2] | IC50 [3] | IC50 [4] | Ki [4] | IC50 [5] | IC50 [7] | Ki [7]

CN[C@H]1CC[C@@H](c2ccc(Cl)c(Cl)c2)c2ccccc21 [SERTRALINE]
Not Active: IC50 [3] | IC50 [5] | IC50 [6] | Ki [6]

NC(=O)N1C(=O)/C(=C(\O)c2cccs2)c2cc(Cl)ccc21 [TENIDAP]
Not Active: IC50 [1] | Ki [1] | IC50 [2] | Ki [2] | IC50 [3] | IC50 [4] | Ki [4] | IC50 [5] | IC50 [7] | Ki [7]

COc1cc2nc(N3CCN(C(=O)C4CCCO4)CC3)nc(N)c2cc1OC (stereo not given) [TERAZOSIN]
Not Active: IC50 [1] | Ki [1] | IC50 [2] | Ki [2] | IC50 [3] | IC50 [4] | Ki [4] | IC50 [5] | IC50 [6] | Ki [6]

CCCCNc1ccc(C(=O)OCCN(C)C)cc1 [TETRACAINE]
Not Active: IC50 [1] | Ki [1] | IC50 [2] | Ki [2] | IC50 [3] | IC50 [4] | Ki [4] | IC50 [5] | IC50 [7] | Ki [7]

O=C(Nc1ccc(Br)cc1)c1cc(Br)cc(Br)c1O [TRIBROMSALAN]
Not Active: IC50 [1] | Ki [1] | IC50 [2] | Ki [2] | IC50 [3] | IC50 [4] | Ki [4] | IC50 [5] | IC50 [7] | Ki [7]
